Test system: HIV-1 protease (Human immunodeficiency virus 1)
Experiment: Inhibition of wild type HIV1 protease expressed in Escherichia coli by fluorometric assay

Row | Compound | IC50
1 | CC(C)CN(C[C@@H](O)[C@H](Cc1ccccc1)NC(=O)O[C@H]1CN[C@H](C(=O)NC(C)(C)C)C1)S(=O)(=O)c1ccc(N)cc1 | 10.1 µM
2 | COc1ccc(OC)c(NC(=O)[C@@H]2C[C@@H](OC(=O)N[C@@H](Cc3ccccc3)[C@H](O)CN(CC(C)C)S(=O)(=O)c3ccc(N)cc3)CN2)c1 | 11.8 µM
3 | COc1cccc(NC(=O)[C@@H]2C[C@@H](OC(=O)N[C@@H](Cc3ccccc3)[C@H](O)CN(CC(C)C)S(=O)(=O)c3ccc(N)cc3)CN2)c1 | 15.2 µM
4 | CC(C)CN(C[C@@H](O)[C@H](Cc1ccccc1)NC(=O)O[C@H]1CN[C@H](C(=O)Nc2ccccc2)C1)S(=O)(=O)c1ccc(N)cc1 | 14.8 µM
5 | COc1cc(NC(=O)[C@@H]2C[C@@H](OC(=O)N[C@@H](Cc3ccccc3)[C@H](O)CN(CC(C)C)S(=O)(=O)c3ccc(N)cc3)CN2)cc(OC)c1OC | 10.1 µM
6 | CC(C)(C)NC(=O)[C@@H]1CN(Cc2cccnc2)CCN1C[C@@H](O)C[C@@H](Cc1ccccc1)C(=O)N[C@H]1c2ccccc2C[C@H]1O | < 0.01 µM

More lines, now with the values ahead:

Row | IC50 | Compound
7 | 0.139 µM | Cc1ccc(NC(=O)[C@@H]2C[C@@H](OC(=O)N[C@@H](Cc3ccccc3)[C@H](O)CN(CC(C)C)S(=O)(=O)c3ccc(N)cc3)CN2)cc1
8 | 0.0166 µM | CC(C)CN(C[C@@H](O)[C@H](Cc1ccccc1)NC(=O)O[C@H]1CN[C@H](C(N)=O)C1)S(=O)(=O)c1ccc(N)cc1
9 | 13 µM | COc1ccccc1NC(=O)[C@@H]1C[C@@H](OC(=O)N[C@@H](Cc2ccccc2)[C@H](O)CN(CC(C)C)S(=O)(=O)c2ccc(N)cc2)CN1
10 | 0.0154 µM | COc1ccc(NC(=O)[C@@H]2C[C@@H](OC(=O)N[C@@H](Cc3ccccc3)[C@H](O)CN(CC(C)C)S(=O)(=O)c3ccc(N)cc3)CN2)cc1
